pEC50: −log10 of the molar value.
Assays:
[1] = test system: SCD1 protein production in SZ95-SCD1-HiBit cells; assay: Measurement of SCD1 expression in SZ95-SCD1-HiBit cells (HiBiT assay); assay type: cell-based; conditions: Homo sapiens; for pEC50: SZ95-SCD1-HiBit cells, 48h incubation, top concentration 18 μM; for Emax: percent compared to the reference compound (Compound H), 48h, read-out: HiBit Amax
Experimental: SZ95-SCD1-HiBit cells were seeded in 384-well cell culture white plates at a density of 3000 cells/30 ul. Water is added to edge wells to avoid evaporation. Cells were incubated in a humidified incubator with 5% CO2 at 37° C. overnight. Tested compounds were diluted at a ratio of 1:3 using Agilent BRAVO Automated Liquid Handling Platform and added to cells at final concentrations starting from 18 μM. Compound H was used as a reference compound in each plate. Cells in the assay plate were incubated in a humidified incubator with 5% CO2 at 37° C. for 48h.
The assay plates were removed from the incubator and allowed to equilibrate to room temperature. Nano-Glo® HiBiT Detection Reagent (Promega; a mixture of Nano-Glo HiBiT Detection Buffer, Nano-Glo HiBiT Detection Substrate, and LgBiT protein) was added into assay plates, at a volume equal to cell culture medium in each well. Plates were placed on an orbital shaker at a speed of 300-600 rpm for 10 min at room temperature, and read on an EnVision Plate Reader using luminescence detection with a 1 second read time.
The assay measures the increase in SCD1 protein production in vitro. Amax refers to the percent […] of the tested compound compared to the reference compound.

[2] = In vivo measurement of lowered meibum melting temperature (DSC); design: species or system Sprague Dawley rats; conditions: for Change of Tm: compound versus vehicle, rat meibum, DSC (method gives °C); for Mean ± SEM of Compound (meibum melting temperature): naive Sprague Dawley rats, 1% compound, DSC peak temperature (method gives °C), in °C; for Meibum melting temperature, in words: rat eyes, concentration of 1%, in comparison to vehicle
Experimental: For specific compounds Compound B and Compound C, the lowering of rat meibum melting temperature was measured in naive Sprague Dawley rats. The test animals were administered either vehicle or Compound B or Compound C, the meibum collected upon administration of the compounds was analyzed by differential scanning calorimetry to measure the melting point. The lowering of meibum melting point in rats administered Compound B or Compound C were compared to vehicle.
Melting properties of meibum were obtained using differential scanning calorimetry thermograms, recorded on a TA Discovery Q5000 (ThermoAnalytical). Samples were sealed in standard 40 μl aluminum pans and subjected to a heat-cool-heat cycle with melting temperatures being recorded on the second heating ramp. The samples were first heated to 150° C. at 30K/min then cooled −30° C. at 30K/min. Next, the sample was heated to 75° C. with an underlying heating rate of 2K/min, a period of modulation of 60 seconds and a temperature amplitude of modulation of 1° C. Dry N2 gas, at a flow rate of 50 mL/min was used to purge the DSC equipment during the measurement. Onset of melting and peak temperatures were recorded with peak temperature quoted as the melting point.
Results from the assay are shown Table 3 and in FIGS. 1 and 2. Results were analyzed using an unpaired t test with Welch's correction.

[3] = test system: SZ95 (immortalized human sebaceous gland cells) cells; assay: Sentinel lipid assay (desaturation index in SZ95 sebocytes); assay type: cell-based; conditions: for pEC50: SZ95 cells, 72h incubation, top concentration 10 μM, desaturation index, read-out: SLA EC50; for Emax: percent compared to the reference compound (Compound H), 72h, read-out: SLA Amax
Experimental: SZ95 (immortalized human sebaceous gland cells) cells were seeded in Greiner bio-one 96-well polypropylene plates that were pre-treated with 50 μg/ml Human Plasma Fibronectin (Thermo Fisher Scientific) at a density of 10^4 cells/135 μl. Cells were incubated in a humidified incubator with 5% CO2 at 37° C. overnight. Test compounds were diluted at a ratio of 1:3 and added to cells at final concentrations starting from 10 μM. Compound H was used as a positive control reference compound in each plate. Cells in the assay plate were incubated in a humidified incubator with 5% CO2 at 37° C. for 72h.
Culture medium was removed from the cells and cells in culture plates were washed with ice cold phosphate buffered saline three times. Plates were heat sealed and stored in a −80° C. freezer prior to Sentinel lipid assay.
Sentinel lipid assay: The sentinel lipid assay was used quantify the change in the global desaturation index in SZ95 sebocytes upon administration of LXR agonist compounds. The assay measures a smaller subset of lipid analytes in […] (termed “sentinel lipids”) which would model the global changes the population of both saturated and desaturated lipids in the cells. In order to define this smaller subset of lipids, a complete lipid profile was recorded on dose response curves (eight levels from 4 nM to 10 uM) of Compounds A-N. An elastic net regression model was applied separately to both the saturated and desaturated lipids to determine the minimum combination of coefficients and analytes which could be used to adequately model the total population of lipids. The elastic net model was able to reduce the behavior of 425 lipids to 11 lipids and the correlation between the desaturation indices observed using the complete set of lipids with from the 11 sentinel lipids was 0.96.
A medium throughput assay was created using this reduced set of sentinel lipids. A single batch is defined as triplicate examples of three unique plates (i.e., a single batch of cells is used to create nine plates for LC-MSMS analysis). Lipids were extracted from the cells using a 1:1 mixture of methylene chloride/methanol containing 10 nM of deuterated standards of triglycerides, which are used as internal standards for quantitating the lipid abundance. The lipids were separated prior to mass spectrometric analysis using a five minute HPLC gradient. The abundance of the sentinel lipids and the internal standards are measured using multiple reaction monitor mode (MRM) on a triple quadrupole mass spectrometer. The data was transformed from total ion current to nmoles/10^6 cells, which are multiplied by the coefficients from the elastic net model to determine the effective desaturated and saturated content, and therein the desaturation index of the dosed cells. In order to compare compounds from multiple batches with one another, the measure raw desaturation index was normalized by dividing it by the desaturation index of the DMSO dosed cells, and all data was assessed as the fraction by which the compound increases the desaturation index above 1. The Amax value refers to the percent […] of the tested compound compared to the reference compound.

[4] = Eyelid pharmacokinetics: compound concentration in rabbit meibomian gland; assay type: in vivo
Experimental: A formulation of 1% Compound G as a suspension in a suitable vehicle was administered to rabbits as follows. Animals were sedated and the eyelashes and hair on both eyes on both lids trimmed as short as possible. Thirty microliters of the 1% Compound G was drawn up into a pipette and carefully pipetted around the entire eyelid of the animal a few millimeters back from the edge of the lid so as to prevent the material from leaking onto the eye itself. Following application, a cotton swab or eye spear was used to gently try and massage the material into the skin. At the appropriate time points, the animals were euthanized and meibomian glands removed and the concentration of the compound in meibomian glands was measured. The experiment was conducted in triplicate and the results below illustrate mean concentration in nM.

pEC50 [1] | Uptake into the meibomian gland ([4]; 1% suspension on eyelid, in words) | concentration at 0.5 h ([4]; meibomian gland, topical, 0.5 h, 30 microliters of 1% suspension applied to eyelid, triplicate) [nM] | concentration at 3 h ([4]; meibomian gland, topical, 3 h, 30 microliters of 1% suspension applied to eyelid, triplicate) [nM] | concentration at 6 h ([4]; meibomian gland, topical, 6 h, 30 microliters of 1% suspension applied to eyelid, triplicate) [nM] | SMILES | Emax [1] [%] | Change of Tm [2] | Mean ± SEM of Compound (meibum melting temperature) [2] | Meibum melting temperature, in words [2] | pEC50 [3] | Emax [3] [%]
8.74 | – | – | – | – | CC(C)(C)N1C(=O)C(Nc2ccc(N3CCCCC3)cc2)=C(c2ccccc2)S1(=O)=O [Compound B, 2-(tert-butyl)-5-phenyl-4-((4-(piperidin-1-yl)phenyl)amino)isothiazol-3(2H)-one 1,1-dioxide] | 64 | −1.534 ± 0.3522 | 29.1 ± 0.2363 | decrease in meibum melting temperature | 6.77 | 92
6.96 | sustained for at least six hours | 2630 | 3780 | 1050 | CCOC(=O)Cn1nc(C(F)(F)F)cc1-c1ccc(-c2cccc(S(C)(=O)=O)c2)cc1 [Compound G, ethyl 2-(5-(3′-(methylsulfonyl)-[1,1′-biphenyl]-4-yl)-3-(trifluoromethyl)-1H-pyrazol-1-yl)acetate] | 70.7 | – | – | – | 6.61 | 98.8
8.40 | – | – | – | – | CC(C)[C@@H]1c2nc3cc(CO)c(S(C)(=O)=O)cc3n2CCN1c1ncc(C(C)(C)O)c(C(F)(F)F)n1 [Compound N, (R)-2-(2-(8-(hydroxymethyl)-1-isopropyl-7-(methylsulfonyl)-3,4-dihydrobenzo[4,5]imidazo[1,2-a]pyrazin-2(1H)-yl)-4-(trifluoromethyl)pyrimidin-5-yl)propan-2-ol] | 72.4 | – | – | – | 7.28 | 165

SMILES | pEC50 [1] | Uptake into the meibomian gland ([4]; 1% suspension on eyelid, in words) | concentration at 0.5 h ([4]; meibomian gland, topical, 0.5 h, 30 microliters of 1% suspension applied to eyelid, triplicate) [nM] | concentration at 3 h ([4]; meibomian gland, topical, 3 h, 30 microliters of 1% suspension applied to eyelid, triplicate) [nM] | concentration at 6 h ([4]; meibomian gland, topical, 6 h, 30 microliters of 1% suspension applied to eyelid, triplicate) [nM] | Emax [1] [%] | Change of Tm [2] | Mean ± SEM of Compound (meibum melting temperature) [2] | Meibum melting temperature, in words [2] | pEC50 [3] | Emax [3] [%]
C[C@H](CCOc1cccc(C(C)(C)C(=O)O)c1)N(Cc1cccc(C(F)(F)F)c1Cl)CC(c1ccccc1)c1ccccc1 [Compound C, (R)-2-(3-(3-((2-chloro-3-(trifluoromethyl)benzyl)(2,2-diphenylethyl)amino)butoxy)phenyl)-2-methylpropanoic acid] | 9.05 | – | – | – | – | 69.9 | −1.513 ± 0.6575 | 30.68 ± 0.6065 | decrease in meibum melting temperature | 8.26 | 90.7
